{"source": "ChEMBL document CHEMBL3351614", "about": "“Discovery of 1a,2,5,5a-tetrahydro-1H-2,3-diaza-cyclopropa[a]pentalen-4-carboxamides as potent and selective CB2 receptor agonists” (Bioorg Med Chem Lett, 2015)", "key": {"[1]": {"test": "Cmax in Sprague-Dawley rat at 3 mg/kg, po after 0.4 hrs", "assay_type": "ADME, organism-based", "parameters": "dose 3 mg/kg, route oral", "conditions": "in vivo"}, "[2]": {"test": "Ratio of drug level in brain to plasma in Sprague-Dawley rat at 3 mg/kg, po after 2 hrs", "assay_type": "ADME, organism-based", "parameters": "dose 3 mg/kg, route oral", "conditions": "read-out: BPR"}, "[3]": {"test": "Volume of distribution at steady state in Sprague-Dawley rat at 2 mg/kg, iv and 3 mg/kg, po", "assay_type": "ADME, organism-based", "conditions": "in vivo, read-out: Vdss"}, "[4]": {"test": "AUClast in Sprague-Dawley rat at 2 mg/kg, iv and 3 mg/kg, po", "assay_type": "ADME, organism-based", "conditions": "plasma"}, "[5]": {"test": "Cmax in Sprague-Dawley rat at 2 mg/kg, iv and 3 mg/kg, po", "assay_type": "ADME, organism-based", "conditions": "in vivo"}, "[6]": {"test": "Oral bioavailability in Sprague-Dawley rat at 3 mg/kg", "assay_type": "ADME, organism-based", "conditions": "in vivo"}, "[7]": {"test": "Drug uptake in Sprague-Dawley rat brain at 3 mg/kg, po after 2 hrs", "assay_type": "ADME, organism-based", "parameters": "dose 3 mg/kg, route oral", "conditions": "read-out: Drug uptake"}, "[8]": {"system": "Rattus norvegicus", "test": "Toxicity in rat assessed as reduction in core temperature at 0.3 mg/kg, ip", "assay_type": "organism-based", "parameters": "dose 0.3 mg/kg, route intraperitoneal", "conditions": "in vivo"}}}
{"molecule": "CC(C)(NC(=O)c1nn(C(C)(C)C)c2c1C[C@H]1C[C@@H]21)c1ccccc1", "values": [{"measurement": "Cmax", "setting": "[1]", "value": 33, "unit": "ng/mL"}]}
{"molecule": "CC(C)(CO)NC(=O)c1nn(-c2ccc(F)cc2F)c2c1C[C@H]1C[C@@H]21", "values": [{"measurement": "Kp at 2 h", "setting": "[2]", "value": 0.356}, {"measurement": "Vd", "setting": "[3]", "value": 0.851, "unit": "L/kg"}, {"measurement": "AUC(0-t)", "setting": "[4]", "value": 4480, "unit": "ng·h/mL"}, {"measurement": "Cmax", "setting": "[5]", "value": 808, "unit": "ng/mL"}, {"measurement": "bioavailability", "setting": "[6]", "value": 35.9, "unit": "%"}, {"measurement": "concentration at 2 h", "setting": "[7]", "value": 623, "unit": "ng/g"}]}
{"molecule": "CCCCCCC(C)(C)c1ccc([C@@H]2C[C@H](O)CC[C@H]2CCCO)c(O)c1", "note": "[CP-55940]", "values": [{"measurement": "T", "setting": "[8]", "value": "> 2", "unit": "°C"}]}
